Assay results reported in patent US9174977B2, “2-azabicyclo[4.1.0]heptane derivatives as orexin receptor antagonists for the treatment of certain disorders” (Rottapharm Biotech S.r.l., priority 2012, dated 2015).

How the values were obtained:
human OX1 receptors = target: T1, human OX1 receptors (Homo sapiens, UniProt O43613); assay: antagonistic activity against human OX1 receptor, calcium fluorimetry (Fluo-4NW) in transfected CHO cells; format: cell-based; conditions: CHO cells transfected with human recombinant OX1, activated with orexin-A 3 nM; pKb = co-logarithm of apparent dissociation constant (modified Cheng Prusoff)
T1 construct: expressed in transfected cells; host or cells: CHO cells
T1 sequence (O43613 1-425): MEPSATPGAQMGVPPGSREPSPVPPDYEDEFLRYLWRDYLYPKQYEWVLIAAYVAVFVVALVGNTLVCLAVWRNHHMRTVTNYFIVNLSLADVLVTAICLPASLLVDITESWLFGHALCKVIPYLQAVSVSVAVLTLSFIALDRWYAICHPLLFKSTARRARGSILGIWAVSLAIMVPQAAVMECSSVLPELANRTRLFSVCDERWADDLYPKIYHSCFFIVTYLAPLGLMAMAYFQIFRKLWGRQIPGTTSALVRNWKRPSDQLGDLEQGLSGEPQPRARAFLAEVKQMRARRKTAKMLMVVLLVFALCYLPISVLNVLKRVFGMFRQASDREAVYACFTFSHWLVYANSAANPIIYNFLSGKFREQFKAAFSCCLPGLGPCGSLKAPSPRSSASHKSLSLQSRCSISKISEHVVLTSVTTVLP
Procedure: (§1) In a typical experiment, the antagonistic activity against human OX1 and OX2 receptors is determined by using CHO e HEK-293 cells transfected with human recombinant OX1 and OX2 receptors respectively, seeded at density of 2 and 3×10^4 cells/well respectively in a 96 fluorimetry well plate. Thus the plate was loaded with the calcium dye (Fluo-4NW/probenecid in HBSS, Hepes 20 mM, pH 7,4; Invitrogen) at 37° C. for 60 min. Afterward the temperature was equilibrated at 22° C. for 15 min and the [Ca2+]i measured directly on the plate by using a fluorescent plate reader (CellLux Perkin Elmer).
(§2) Invention compounds were dissolved in DMSO, diluted in HBSS (DMSO, 0.3% final) and added to the wells. After 5 min CHO cells were activated with orexin-A, 3 nM while HEK-293 cells were activated with orexin-B, 10 nM.
(§3) The compounds, dissolved in DMSO and diluted in the medium (DMSO, 0.3% final), have been analysed in the 1 nM-1 μM concentration range (every concentration in duplicate). The antagonistic activity has been expressed as pKb (co-logarithm of the apparent dissociation constant calculated by using the modified Cheng Prusoff equation).
(§4) The results are expressed as percent of control specific […] response ((measured specific response/control specific agonist response)×100) obtained in the presence of the test compounds.
(§5) The IC50 values (concentration causing a half-maximal inhibition of the control specific agonist response) were determinated by non-linear regression analysis of the concentration curves generated with mean replicate values using hill equation curve fitting. The IC50 values are obtained by the arithmetical mean of at least two experiments.

human OX2 receptors = target: T2, human OX2 receptors (Homo sapiens, UniProt O43614); assay: antagonistic activity against human OX2 receptor, calcium fluorimetry (Fluo-4NW) in transfected HEK-293 cells; format: cell-based; conditions: HEK-293 cells transfected with human recombinant OX2, activated with orexin-B 10 nM; pKb = co-logarithm of apparent dissociation constant (modified Cheng Prusoff)
T2 construct: expressed in transfected cells; host or cells: HEK-293 cells
T2 sequence (O43614 1-444): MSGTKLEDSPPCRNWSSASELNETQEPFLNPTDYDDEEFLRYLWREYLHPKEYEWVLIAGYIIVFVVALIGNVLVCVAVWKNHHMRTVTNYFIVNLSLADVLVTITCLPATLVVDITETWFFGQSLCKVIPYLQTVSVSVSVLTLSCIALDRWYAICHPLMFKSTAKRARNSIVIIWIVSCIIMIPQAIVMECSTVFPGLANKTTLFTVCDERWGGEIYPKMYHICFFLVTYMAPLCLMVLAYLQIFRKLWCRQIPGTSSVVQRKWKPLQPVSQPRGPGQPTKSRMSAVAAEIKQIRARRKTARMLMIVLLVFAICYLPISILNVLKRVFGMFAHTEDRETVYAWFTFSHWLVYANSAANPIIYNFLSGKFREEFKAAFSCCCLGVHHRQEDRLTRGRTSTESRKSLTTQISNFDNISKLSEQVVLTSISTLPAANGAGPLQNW
Procedure: as §1, §2, §3, §4, §5

SMILES | Kb (human OX1 receptors) [nM] | Kb (human OX2 receptors) [nM]
O=C(c1cc(Cl)ccc1-c1ncccn1)N1[C@H](COc2ccc(Cl)cn2)CC[C@H]2C[C@H]21 [Compound 3e, (5-chloro-2-(pyrimidin-2-yl)phenyl)((1R,3S,6S)-3-(((5-chloropyridin-2-yl)oxy)methyl)-2-azabicyclo[4.1.0]heptan-2-yl)methanone] | 1 | 15.8
N#Cc1ccc(-c2ncccn2)c(C(=O)N2[C@H](CNc3cc(C(F)(F)F)ccn3)CC[C@H]3C[C@H]32)c1 [Compound 1h, 4-(pyrimidin-2-yl)-3-((1R,3S,6S)-3-(((4-(trifluoromethyl)pyridin-2-yl)amino)methyl)-2-azabicyclo[4.1.0]heptane-2-carbonyl)benzonitrile] | 7.94 | 10
Cc1ccc(-c2ncccn2)c(C(=O)N2[C@H](CNc3cc(C(F)(F)F)ccn3)CC[C@@H]3C[C@@H]32)c1 [Compound 4f, (5-methyl-2-(pyrimidin-2-yl)phenyl)((1S,3S,6R)-3-(((4-(trifluoromethyl)pyridin-2-yl)amino)methyl)-2-azabicyclo[4.1.0]heptan-2-yl)methanone] | 6.31 | 39.8
N#Cc1ccc(-c2ncccn2)c(C(=O)N2[C@H](CNc3nccc(C(F)(F)F)n3)CC[C@H]3C[C@H]32)c1 [Compound 1j, 4-(pyrimidin-2-yl)-3-((1R,3S,6S)-3-(((4-(trifluoromethyl)pyrimidin-2-yl)amino)methyl)-2-azabicyclo[4.1.0]heptane-2-carbonyl)benzonitrile] | 5.01 | 20
N#Cc1ccc(-c2ncccn2)c(C(=O)N2[C@H](CNc3ccc(C(F)(F)F)cn3)CC[C@@H]3C[C@@H]32)c1 [Compound 4c, 4-(pyrimidin-2-yl)-3-((1S,3S,6R)-3-(((5-(trifluoromethyl)pyridin-2-yl)amino)methyl)-2-azabicyclo[4.1.0]heptane-2-carbonyl)benzonitrile] | 6.31 | 79.4
N#Cc1ccc(-c2ncccn2)c(C(=O)N2[C@H](COc3ccc(F)cn3)CC[C@H]3C[C@H]32)c1 [Compound 3b, 3-((1R,3S,6S)-3-(((5-fluoropyridin-2-yl)oxy)methyl)-2-azabicyclo[4.1.0]heptane-2-carbonyl)-4-(pyrimidin-2-yl)benzonitrile] | 79.4 | –
O=C(c1cc(Cl)ccc1-c1ncccn1)N1[C@H](CNc2ccc(C(F)(F)F)cn2)CC[C@@H]2C[C@@H]21 [Compound 4b, (5-chloro-2-(pyrimidin-2-yl)phenyl)((1S,3S,6R)-3-(((5-(trifluoromethyl)pyridin-2-yl)amino)methyl)-2-azabicyclo[4.1.0]heptan-2-yl)methanone] | 5.01 | 200
O=C(c1cc(Cl)ccc1-c1ncccn1)N1[C@H](COc2ccc(C(F)(F)F)cn2)CC[C@H]2C[C@H]21 [Compound 3d, (5-chloro-2-(pyrimidin-2-yl)phenyl)((1R,3S,6S)-3-(((5-(trifluoromethyl)pyridin-2-yl)oxy)methyl)-2-azabicyclo[4.1.0]heptan-2-yl)methanone] | 1.26 | 20
Cc1ccc(-c2ncccn2)c(C(=O)N2[C@H](CNc3ccc(Cl)cn3)CC[C@H]3C[C@H]32)c1 [Compound 1c] | 0.794 | 12.6
O=C(c1cc(Cl)ccc1-c1ncccn1)N1[C@H](CNc2ccc(C(F)(F)F)cn2)CC[C@H]2C[C@H]21 [Compound 1e, (5-chloro-2-(pyrimidin-2-yl)phenyl)((1R,3S,6S)-3-(((5-(trifluoromethyl)pyridin-2-yl)amino)methyl)-2-azabicyclo[4.1.0]heptan-2-yl)methanone] | 2.51 | 12.6
Cc1ccc(-c2ncccn2)c(C(=O)N2[C@H](CNc3ccc(C(F)(F)F)cn3)CC[C@@H]3C[C@@H]32)c1 [Compound 4a, (5-methyl-2-(pyrimidin-2-yl)phenyl)((1S,3S,6R)-3-(((5-(trifluoromethyl)pyridin-2-yl)amino)methyl)-2-azabicyclo[4.1.0]heptan-2-yl)methanone] | 2.51 | 39.8
Cc1ccc(-c2ncccn2)c(C(=O)N2[C@H](CNc3nccc(C(F)(F)F)n3)CC[C@@H]3C[C@@H]32)c1 [Compound 4i, (5-methyl-2-(pyrimidin-2-yl)phenyl)((1S,3S,6R)-3-(((4-(trifluoromethyl)pyrimidin-2-yl)amino)methyl)-2-azabicyclo[4.1.0]heptan-2-yl)methanone] | 25.1 | –
Cc1ccc(-c2ncccn2)c(C(=O)N2[C@H](CNc3ccc(C(F)(F)F)cn3)CC[C@H]3C[C@H]32)c1 [Compound 1d, (5-methyl-2-(pyrimidin-2-yl)phenyl)((1R,3S,6S)-3-(((5-(trifluoromethyl)pyridin-2-yl)amino)methyl)-2-azabicyclo[4.1.0]heptan-2-yl)methanone] | 1.26 | 3.98
Cc1ccc(-c2ncccn2)c(C(=O)N2[C@H](CNc3nccc(C(F)(F)F)n3)CC[C@H]3C[C@H]32)c1 [Compound 1k, (5-methyl-2-(pyrimidin-2-yl)phenyl)((1R,3S,6S)-3-(((4-(trifluoromethyl)pyrimidin-2-yl)amino)methyl)-2-azabicyclo[4.1.0]heptan-2-yl)methanone] | 2.51 | 5.01
O=C(c1cc(Cl)ccc1-c1ncccn1)N1[C@H](CNc2cc(C(F)(F)F)ccn2)CC[C@H]2C[C@H]21 [Compound 1a, (5-chloro-2-(pyrimidin-2-yl)phenyl)((1R,3S,6S)-3-(((4-(trifluoromethyl)pyridin-2-yl)amino)methyl)-2-azabicyclo[4.1.0]heptan-2-yl)methanone] | 1.58 | 3.98
Cc1ccc(-c2ncccn2)c(C(=O)N2[C@H](CNc3ccc(Cl)cn3)CC[C@@H]3C[C@@H]32)c1 [Compound 4g, ((1S,3S,6R)-3-(((5-chloropyridin-2-yl)amino)methyl)-2-azabicyclo[4.1.0]heptan-2-yl)(5-methyl-2-(pyrimidin-2-yl)phenyl)methanone] | 1.58 | –
N#Cc1ccc(-c2ncccn2)c(C(=O)N2[C@H](CNc3ccc(Cl)cn3)CC[C@H]3C[C@H]32)c1 [Compound 1i, 3-((1R,3S,6S)-3-(((5-chloropyridin-2-yl)amino)methyl)-2-azabicyclo[4.1.0]heptane-2-carbonyl)-4-(pyrimidin-2-yl)benzonitrile] | 1.58 | 20
N#Cc1ccc(-c2ncccn2)c(C(=O)N2[C@H](CNc3ccc(C(F)(F)F)cn3)CC[C@H]3C[C@H]32)c1 [Compound 1b, 4-(pyrimidin-2-yl)-3-((1R,3S,6S)-3-(((5-(trifluoromethyl)pyridin-2-yl)amino)methyl)-2-azabicyclo[4.1.0]heptane-2-carbonyl)benzonitrile] | 5.01 | 10
O=C(c1cc(Cl)ccc1-c1ncccn1)N1[C@H](CNc2ccc(Cl)cn2)CC[C@@H]2C[C@@H]21 [Compound 4e, (5-chloro-2-(pyrimidin-2-yl)phenyl)((1S,3S,6R)-3-(((5-chloropyridin-2-yl)amino)methyl)-2-azabicyclo[4.1.0]heptan-2-yl)methanone] | 3.98 | –
O=C(c1cc(Cl)ccc1-c1ncccn1)N1[C@H](CNc2nccc(C(F)(F)F)n2)CC[C@@H]2C[C@@H]21 [Compound 4h, (5-chloro-2-(pyrimidin-2-yl)phenyl)((1S,3S,6R)-3-(((4-(trifluoromethyl)pyrimidin-2-yl)amino)methyl)-2-azabicyclo[4.1.0]heptan-2-yl)methanone] | 31.6 | –
